Like-named read-outs stand apart in the source and are kept apart here. Bridge positions count the residues as written; N and C are the ends. Peptide text beside a SMILES is read from it. Bounds are passed on as bounds.

Data set [1] relates to inotocin R (L. niger). Kind of data set: IP1 accumulation, CHO cells expressing L. niger inotocin receptor. It counts as cell-based, Lasius niger. The following applies: 10 µM peptide, L. niger INTR. The protocol:
(§1) Chinese Hamster Ovary cells (CHO) were cultured in Ham’s F12 media supplemented with 10% fetal bovine serum (FBS), 1% PenStrep (all from Sigma-Aldrich, Munich, Germany) and grown in a humidified atmosphere of 37 °C, 5% CO2 and passaged on average twice per week. CHO cells were used for expression of inotocin receptor (L. niger, T. castaneum). Cell transfections were carried out with 10 μg of plasmid using Lipofectamine LTX (Life Technologies, Invitrogen, Carlsbad, USA) for invertebrate receptors. For the expression of human OTR, V1aR, V1bR and V2R, HEK293 cells were transfected using jetPRIME (Polyplus Transfections, Illkirch-Graffenstaden, France)[35]. Cells were maintained in DMEM (GE Healthcare Hy Clone™, Logan, USA) supplemented with 10% FBS and 1% PenStrep.
(§2) Activation of Gq-signalling via the human V1aR, V1bR and OTR, as well as the insect INTR was measured by inositol-1-phosphate (IP1) quantification using an IP1 Tb kit (Cisbio, Codolet, France). Transfected cells were seeded in 96 well-plates, with a cell density of 10^4 cells per well. […] Samples were measured in technical triplicates. […] Activation of Gs-signalling via the human V2R was measured using a luciferase reporter assay. […] For Schild regression analysis, each concentration-ratio (r) was calculated as the agonist EC50 in the presence of a respective concentration of [D-Arg8]-inotocin by the EC50 of the agonist alone.

Data set [2] deals with inotocin R (T. castaneum). The data set is described as follows: IP1 accumulation, CHO cells expressing T. castaneum inotocin receptor. Format: cell-based, Tribolium castaneum. The following applies: 10 µM peptide, T. castaneum INTR. On the procedure: as §1, §2
Data set [3] addresses inotocin R (L. niger). The data set is described as follows: Radioligand displacement of [3H] inotocin, inotocin receptor from L. niger. Also noted: species or system Lasius niger. The following applies: saturation binding experiments. On the procedure:
as §1
(§3) Unbound ligands were washed off (Skatron Cell Harvester). […] Bindings of [^3H] AVP and [^3H] […] Bindings of [^3H] inotocin to membranes (10 μg) expressing INTR from L. niger, or [^3H] inotocin to membranes (10 μg) expressing INTR from T. castaneum, respectively, were assayed for displacement with an excess of inotocin (10^−11 to 10^−5 M) (n ≥ 3, except where otherwise stated). […] Specific binding was calculated by subtracting the non-specific binding from the total binding. […] Inhibition constants (Ki) were calculated from IC50 using the method by Cheng and Prusoff[65].
In general terms: Displacement assays read how much labelled ligand stays bound in the presence of the test substance.

Data set [4] concerns the target inotocin R (T. castaneum). The data set is described as follows: Radioligand displacement of [3H] inotocin, inotocin receptor from T. castaneum. Also noted: species or system Tribolium castaneum. The settings on record: saturation binding experiments. On the procedure:
as §1, §3

The test system of a further data set is human myometrium. Kind of data set: Ex vivo human myometrial contractility, vasopressin-augmented (0.5 nM). The settings on record: vasopressin 0.5 nM.
Data set [5] has as its target T1, human V2R (Homo sapiens, UniProt P30518).
T1 construct: expressed in transfected cells; host or cells: HEK293 cells, transient (jetPRIME); for the reporter assay co-transfected with pGL4.29 [luc2P/CRE/Hygro]
The data set is described as follows: Radioligand displacement of [3H] vasopressin, human V2R membranes. Format: binding. The settings on record: Affinity (Ki), displacement of [3H] vasopressin; mean ± SEM. The protocol: as §1
Unbound ligands were washed off (Skatron Cell Harvester). […] Bindings of [^3H] AVP and [^3H] […] Bindings of [^3H] inotocin to membranes (10 μg) expressing INTR from L. niger, or [^3H] inotocin to membranes (10 μg) expressing INTR from T. castaneum, respectively, were assayed for displacement with an excess of inotocin (10^−11 to 10^−5 M) (n ≥ 3, except where otherwise stated). […] Specific binding was calculated by subtracting the non-specific binding from the total binding. IC50 values were obtained by fitting the data to a three-parameter logistic Hill equation. Inhibition constants (Ki) were calculated from IC50 using the method by Cheng and Prusoff[65].

Data set [6] addresses T2, human OTR (Homo sapiens, UniProt P30559).
T2 construct: expressed in transfected cells; host or cells: HEK293 cells, transient (jetPRIME)
T2 sequence (P30559 1-389): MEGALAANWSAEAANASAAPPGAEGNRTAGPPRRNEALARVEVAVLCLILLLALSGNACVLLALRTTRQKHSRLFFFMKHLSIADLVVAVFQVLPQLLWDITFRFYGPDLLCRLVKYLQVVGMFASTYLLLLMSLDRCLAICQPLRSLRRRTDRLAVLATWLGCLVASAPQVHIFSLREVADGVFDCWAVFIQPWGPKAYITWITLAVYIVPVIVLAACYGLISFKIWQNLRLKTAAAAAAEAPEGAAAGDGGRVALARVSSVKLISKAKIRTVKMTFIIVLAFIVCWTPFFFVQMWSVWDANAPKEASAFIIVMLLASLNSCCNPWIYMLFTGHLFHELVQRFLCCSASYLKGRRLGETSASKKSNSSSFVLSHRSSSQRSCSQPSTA
The data set is described as follows: IP1 accumulation, HEK293 cells expressing human OTR. Format: cell-based. The protocol: as §1
(§4) Activation of Gq-signalling via the human V1aR, V1bR and OTR, as well as the insect INTR was measured by inositol-1-phosphate (IP1) quantification using an IP1 Tb kit (Cisbio, Codolet, France). Transfected cells were seeded in 96 well-plates, with a cell density of 10^4 cells per well. Cell culture media was removed from the wells after 6 h and 70 μL of peptide of interest, prepared in IP1 1X Stimulation Buffer at the desired concentrations, was added. Samples were measured in technical triplicates. After 1 h incubation at 37 °C, 15 μL of IP1-d2 was added, following the same volume of Ab-cryptate. […] Activation of Gs-signalling via the human V2R was measured using a luciferase reporter assay. HEK293 transiently expressing V2R were co-transfected with the pGL4.29 [luc2P/CRE/Hygro] (Promega, Mannheim, Germany) plasmid. […] For cell-based functional assays (luciferase and IP1), subtraction of the negative control (stimulation buffer) was applied to all data set. The normalization was performed to the highest value of the positive control from at least 4 independent experiments. Data were fitted using GraphPad Prism 5.0 with an equation for non-linear regression (sigmoidal, slope fit of 1). Values are reported as mean ± SEM. For Schild regression analysis, each concentration-ratio (r) was calculated as the agonist EC50 in the presence of a respective concentration of [D-Arg8]-inotocin by the EC50 of the agonist alone.

Data set [7] deals with T3, human V1aR (Homo sapiens, UniProt P37288). Kind of data set: IP1 accumulation, HEK293 cells expressing human V1aR. It counts as cell-based. Also noted: expressed in transfected cells; host or cells: HEK293 cells, transient (jetPRIME). On the procedure: as §1, §4
T3 sequence (P37288 whole entry): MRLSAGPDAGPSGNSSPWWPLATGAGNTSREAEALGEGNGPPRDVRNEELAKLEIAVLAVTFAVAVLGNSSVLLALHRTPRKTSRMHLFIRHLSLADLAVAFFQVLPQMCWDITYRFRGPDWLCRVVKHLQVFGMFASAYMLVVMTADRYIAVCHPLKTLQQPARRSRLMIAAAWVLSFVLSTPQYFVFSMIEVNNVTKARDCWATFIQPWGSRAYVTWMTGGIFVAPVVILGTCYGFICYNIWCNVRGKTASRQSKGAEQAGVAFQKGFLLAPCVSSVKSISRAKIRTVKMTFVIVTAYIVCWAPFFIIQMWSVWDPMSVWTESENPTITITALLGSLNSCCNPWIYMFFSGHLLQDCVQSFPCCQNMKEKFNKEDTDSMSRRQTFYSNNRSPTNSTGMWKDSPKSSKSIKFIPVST
The format of data set [8] is in vitro ADME, human. The protocol:
Serum stability was tested as described previously. Briefly, serum was obtained prepared from human blood (self-donor), allowed to coagulate for 2 h at 23 °C and centrifuged at 12,000 × g for 10 min. Peptides (100 μM) were incubated in serum for 2, 4, 6, 8, 10 and 24 h at 37 °C. To evaluate peptide stability, aliquots ([…]) were analysed via RP-HPLC (UltiMate 3000, Thermo Scientific Dionex, Vienna, Austria) on a C18 column (Phenomenex Kinetex, Aschaffenburg, Germany) with a 3% gradient using 0.1% (v/v) TFA and 90/10/0.1% (v/v/v) acetonitrile/H2O/TFA as eluents. Half-life (t1/2) of peptides was calculated using non-linear regression analysis using Graph Pad Prism.
Supplementary Fig. 5. Human serum stability of the inotocin D-analogue. [D-Arg 8 ]-inotocin […]
serum and their stability monitored via HPLC over a time course of 2, 4, 6, 8, 10 and 24 h. Melittin, a haemolytic peptide from the bee venom was used as a positive control f or peptide degradation.
Area under the curves of samples was determined and correlated to the negative control analyte, which was dissolved in 0.1% TFA; thus they were not subject to degradation and were assumed therefore as 100%. Peptide stability was expressed in percentage of peptide remaining.
(1 picture or pasted object on this page, not shown here)

In data set [9] the target is T1, human V2R. Kind of data set: cell-based. The following applies: luciferase reporter, CRE response element; mean ± SEM; read-out: Potency (EC50). On the procedure:
as §1, §4
(A reporter such as luciferase makes a cellular process visible.)

Data set [10] addresses T4, human V1bR (Homo sapiens, UniProt P47901).
T4 construct: expressed in transfected cells; host or cells: HEK293 cells, transient (jetPRIME)
T4 sequence (P47901 1-424): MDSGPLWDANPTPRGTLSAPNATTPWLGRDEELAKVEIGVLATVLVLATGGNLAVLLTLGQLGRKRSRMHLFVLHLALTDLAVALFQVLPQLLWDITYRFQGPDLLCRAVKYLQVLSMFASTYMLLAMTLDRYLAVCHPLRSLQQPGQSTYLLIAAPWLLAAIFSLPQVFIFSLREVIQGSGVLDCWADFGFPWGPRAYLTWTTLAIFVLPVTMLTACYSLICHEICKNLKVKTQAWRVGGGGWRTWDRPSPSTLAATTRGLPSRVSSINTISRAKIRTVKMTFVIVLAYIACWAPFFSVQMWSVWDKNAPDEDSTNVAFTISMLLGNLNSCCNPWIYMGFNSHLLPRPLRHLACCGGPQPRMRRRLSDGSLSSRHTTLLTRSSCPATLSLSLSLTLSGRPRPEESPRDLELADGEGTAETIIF
The data set is described as follows: cell-based. The settings on record: IP1 accumulation; mean ± SEM; read-out: Potency (EC50). The protocol:
as §1, §4

Data set [11] deals with T2, human OTR. The data set is described as follows: Radioligand displacement of [3H] oxytocin, human OTR membranes. Format: binding. The settings on record: read-out: Affinity (Ki). The protocol:
as §1, §3

Data set [12] deals with T3, human V1aR. The data set is described as follows: Radioligand displacement of [3H] vasopressin, human V1aR membranes. The following applies: read-out: Affinity (Ki). It counts as binding. Also noted: expressed in transfected cells; host or cells: HEK293 cells, transient (jetPRIME). On the procedure: as §1, §3
For data set [13], the target named is T4, human V1bR. Kind of data set: Radioligand displacement of [3H] vasopressin, human V1bR membranes. Format: binding. The settings on record: Affinity (Ki), displacement of [3H] vasopressin; mean ± SEM.
Text: Unbound ligands were washed off (Skatron Cell Harvester). […] For the displacement at the human OTR, V1aR, V1bR and V2R the normalization to 100% refers on average to 0.49, 1.4, 0.36, 1.1 pmoles of ligand bound per milligram of membrane for human OTR, V1aR, V1bR and V2R, respectively. […] For the displacement at the insect receptors the normalization to 100% refers on average to 0.65 and 0.69 pmoles of ligand bound per milligram of membrane for inotocin receptor from L. niger and T. castaneum, respectively. Bindings of [^3H] inotocin to membranes (10 μg) expressing INTR from L. niger, or [^3H] inotocin to membranes (10 μg) expressing INTR from T. castaneum, respectively, were assayed for displacement with an excess of inotocin (10^−11 to 10^−5 M) (n ≥ 3, except where otherwise stated). […] Specific binding was calculated by subtracting the non-specific binding from the total binding. IC50 values were obtained by fitting the data to a three-parameter logistic Hill equation. Inhibition constants (Ki) were calculated from IC50 using the method by Cheng and Prusoff[65].
Setting [14] is: 100 nM, relative to control activity.
The mark [15] stands for this setting: IP1 accumulation, mean ± SEM, read-out: Potency (EC50).

T1 sequence (P30518 whole entry): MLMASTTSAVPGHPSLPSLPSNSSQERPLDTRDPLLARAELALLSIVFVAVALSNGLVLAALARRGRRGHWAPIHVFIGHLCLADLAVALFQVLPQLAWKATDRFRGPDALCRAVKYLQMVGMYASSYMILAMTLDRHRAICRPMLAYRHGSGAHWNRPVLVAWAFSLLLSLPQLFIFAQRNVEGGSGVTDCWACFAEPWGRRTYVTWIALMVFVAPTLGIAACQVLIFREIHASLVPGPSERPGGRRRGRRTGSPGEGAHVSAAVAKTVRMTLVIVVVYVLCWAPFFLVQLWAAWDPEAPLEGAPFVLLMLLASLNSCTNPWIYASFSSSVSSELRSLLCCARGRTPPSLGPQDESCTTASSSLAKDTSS

Consider “1-desamino-8-D-arginine-vasopressin [Desmopressin]”, for which the “activation (IP1 formation)” value (in the data set with inotocin R (L. niger) [1]; in [2]) was “inactive” in each case.

Usually Kd stands for the equilibrium constant for the complex coming apart. “[^3H] inotocin: tritiated inotocin radioligand, C[4,5-3H]LITNCPGR-NH2 as printed (tritium label; N-terminal Cys; C-terminal amide)”: the figures for the Kd (on inotocin R (L. niger) [3]; in [4]) were 0.9 nM and 2.7 nM, respectively.

For the compound `COc1ccc(S(=O)(=O)N2c3ccc(Cl)cc3[C@](O)(c3ccccc3Cl)[C@@H]2C(=O)N2CCC[C@H]2C(N)=O)cc1OC` [SR49059, relcovaptan], in the data set with human myometrium (setting [14]), the “reduction of area-under-the-curve (AUC)” value stood at 72.1% and the “reduction of contraction amplitude” value amounted to 54.8%. In the data set with human myometrium (tested 1-100 nM), the “concentration at which decrease in area-under-the-curve became significant” value is listed as 30 nM and the “concentration at which decrease in contraction amplitude became significant” value is recorded as 30 nM.

Broadly, the Ki is the equilibrium dissociation constant of an inhibitor or competing ligand from its target. As usually defined, the EC50 is the concentration that produces a half-maximal response. In general, half-life refers to the time in which the quantity being followed falls by half. `CC[C@H](C)[C@@H]1NC(=O)[C@H](CC(C)C)NC(=O)[C@@H](N)CSSC[C@@H](C(=O)N2CCC[C@H]2C(=O)N[C@@H](CCCNC(=N)N)C(=O)NCC(N)=O)NC(=O)[C@H](CC(N)=O)NC(=O)[C@H]([C@@H](C)O)NC1=O` [inotocin] (H-CLITNCPRG-NH2; disulfide 1-6): the Ki on human V2R [5] is greater than 100000 nM; on human OTR [11] it was 62 ± 37 nM; on human V1aR [12], 11 ± 4.4 nM; at human V1bR [13], 12 ± 6.5 nM. Also, the EC50 is greater than 100000 nM on human OTR [6] (setting [15]); greater than 10000 nM on human OTR [6] (IP1 response, human OTR, read-out: EC50); greater than 100000 nM on human V1aR [7] (setting [15]); greater than 10000 nM at human V1aR [7] (IP1 response, human V1aR, read-out: EC50); greater than 1500 nM at human V2R [9]; 56 ± 9.7 nM at human V1bR [10]. In data set [8] (human serum, 37 °C, 100 μM peptide, read-out: half-life t½ (converted)), the half-life is 2.8 h. For the same compound, the “degradation in human serum” value in data set [8] (within 24 h) is “fully degraded”.

For the origin of these results see paper PMC5286520 (Scientific Reports, 2017).
